Test results taken from US20180064730A1 (priority 2014, published 2018).
“And” between values parts separate entries of the source, which are not always exact repeats. Identical values can stand only once. “Also recorded” adds a separate entry of the source. Like-named read-outs stand apart in the source and are kept apart here.

What was measured:
[1] = test system: IL-8 secretion from CF lung epithelial cells; assay: Suppression of constitutive IL-8 secretion from CF lung epithelial cells; assay type: cell-based, human; conditions: for IC50: constitutive IL-8 hypersecretion, read-out: K50 (concentration causing a 50% reduction of IL-8 secretion)
Source text: Analysis of cardiac glycoside activities identifies a structure-activity-relationship for IL-8 suppression. […] Using all the data we were also able to derive a structure-activity relationship (see Table 1). Briefly, suppression of IL-8 secretion from CF lung epithelial cells is optimally promoted by the presence of glycosyl moieties at the 3-position of the cholesterol nucleus, and by the absence of oxygen-containing substitutions at or near the 12-position on the C ring. Activity declines when glycosyl moieties are absent from the 3-position, and when oxygen-containing substitutions are made at or near the 12-position on the C ring. […] We therefore give the equatorial 12-position and its neighbors crucial negative pharmacophoric importance, and glycosidic substitution at the 3-position positive pharmacophoric importance for the control of IL-8 secretion from CF lung epithelial cells.
(§1) Previously published data had implicated a dysfunctional TNFα/NFκB signaling pathway as responsible for the pro-inflammatory phenotype of the CF lung. […] (46 Srivastava et al, 2004) (47 Yang Q, et al, 2005).

[2] = test system: control patients / heart failure patients; conditions: cited from earlier work
[3] = test system: Wuhan influenza virus induced lung inflammation; assay: Rodent influenza lung inflammation model, lung cytokines/chemokines by ELISA; assay type: in vivo, cotton rat
Method: Applicant previously conducted a study on a mammal, a rodent with induced lung inflammation from Wuhan influenza virus.
Lung tissue was harvested on day 7, and assayed in terms of pg/ml for iFN-Gamma, GRO/KC, MTP-2, TNF-ALPHA, IL-1B, MCP-1. TGF-Beta, and GM-CSF. Rodents lack IL-8, and instead have GRO/KC and MIP-2.
Methods: The assays for different cytokines and chemokines were performed with commercial micro-sandwich ELISA assays. (Searchlight System, Pierce-Thermo). The results shown are for 22 patients, including 14 females and 8 males.

[4] = test system: TNFα/NFκB signaling pathway; assay: Reverse Phase Protein Microarray of IB3-1 and CFTR-repaired IB3-1/S9 cells; assay type: cell-based, human; conditions: ID90 concentrations; IB3-1 and IB3-1/S9 cells
Source text: as §1

[5] = cited from earlier work
[6] = test system: CF patients; assay: Phase II clinical trial of digitoxin in cystic fibrosis: adverse events; conditions: for Pulm, upper_resp adverse events (cases) / Dermatolog adverse events / Gastrointestinal adverse events / General adverse events / Musculoskel adverse events / Neurological adverse events / Reproductive adverse events / Total (all) adverse events (cases): 28 days, n = 8; for Incidence Rate, all adverse events / Incidence Rate, pulmonary adverse events: person-time 224
Method: Experiment# 1.1. Study design and methods: The study was a randomized, double-blind, placebo controlled, repeat dosing escalation trial. Adults 18-45 years of age with a diagnosis of CF and meet Inclusion/exclusion criteria were selected for the trial. The 24 evaluable patients were studied at a single site, and randomized with respect to drug treatment and placebo at a ratio of 2:1, respectively. Screening included a 24 hour Holter monitor to screen for possible for baseline dysrhythmias. […] Dosing was once a day for 28 days with 8 patients in each group.
The inclusion criteria included (i) male or female, 18 to 45 years of age; (ii) confirmed diagnosis of CF by sweat test (a sweat chloride concentration≧60 meq/L), and a genotype consistent with a CF diagnosis; (iii) FEV 1, % PRED≧40%; (iv) clinically stable with no evidence of acute upper respiratory or lower respiratory tract infection or current pulmonary exacerbation; (v) ability to perform spirometry; (vi) weight≧45 kg at screening and at visit #1 (dosing).
During this period, subjects were not taking macrolide antibiotics.

[7] = test system: TNFalpha-activated NFκB activation and IL-8 expression; conditions: CF airway epithelial cells; cited from earlier work
[8] = target: T1, TNF-alpha-activated TNFR and TRADD (Homo sapiens, UniProt P19438+Q15628); assay: Interaction between TNF-alpha-activated TNFR and TRADD
T1 sequence (Q15628 1-312): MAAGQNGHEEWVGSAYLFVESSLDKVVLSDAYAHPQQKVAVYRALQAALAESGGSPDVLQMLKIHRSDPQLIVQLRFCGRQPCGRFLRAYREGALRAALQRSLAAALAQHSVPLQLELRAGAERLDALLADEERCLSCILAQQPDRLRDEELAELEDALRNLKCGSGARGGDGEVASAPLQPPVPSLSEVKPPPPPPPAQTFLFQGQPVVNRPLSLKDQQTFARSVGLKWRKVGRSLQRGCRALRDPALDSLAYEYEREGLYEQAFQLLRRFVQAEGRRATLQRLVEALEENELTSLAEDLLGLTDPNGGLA
T1 sequence (P19438 22-455 limits assumed): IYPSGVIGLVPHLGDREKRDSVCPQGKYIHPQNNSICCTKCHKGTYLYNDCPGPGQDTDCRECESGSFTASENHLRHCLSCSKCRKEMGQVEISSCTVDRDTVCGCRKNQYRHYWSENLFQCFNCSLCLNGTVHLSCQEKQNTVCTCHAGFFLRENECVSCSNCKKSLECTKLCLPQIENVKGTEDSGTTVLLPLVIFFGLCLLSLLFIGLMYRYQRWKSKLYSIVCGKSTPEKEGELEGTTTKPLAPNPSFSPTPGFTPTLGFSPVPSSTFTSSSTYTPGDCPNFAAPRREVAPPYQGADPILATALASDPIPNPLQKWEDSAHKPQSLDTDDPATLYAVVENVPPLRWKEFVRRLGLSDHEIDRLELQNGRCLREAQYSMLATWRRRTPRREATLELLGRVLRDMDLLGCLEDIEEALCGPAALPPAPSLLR
Source text: Increased expression of TRADD is associated with a greater rate of decline in CF lung function. […] Trend-lines are based on data for female CF patients, who make up the majority of the patients.

[9] = test system: CF children; conditions: CF vs control children; cited from earlier work
[10] = 3, 10 and 30 mg/kg daily, lung harvested day 7

Work on `CC(=O)O[C@H]1CC[C@]2(C=O)[C@H]3CC[C@]4(C)[C@@H](C5=CC(=O)OC5)CC[C@]4(O)[C@@H]3CC[C@]2(O)C1` [Acetyl Strophanthidin] yielded an IC50 [1] of 0.117 µM.

`C[C@]12CC[C@H](O)C[C@H]1CC[C@@H]1[C@@H]2CC[C@]2(C)[C@@H](C3=CC(=O)OC3)CC[C@]12O` [Digitoxigenin] gave an IC50 ([1]; Homo sapiens, Epithelial cell) of 0.0736 µM.

In the case of `C[C@H]1O[C@@H](O[C@H]2[C@@H](O)C[C@H](O[C@H]3[C@@H](O)C[C@H](O[C@H]4CC[C@@]5(C)[C@H](CC[C@@H]6[C@@H]5CC[C@]5(C)[C@@H](C7=CC(=O)OC7)CC[C@]65O)C4)O[C@@H]3C)O[C@@H]2C)C[C@H](O)[C@@H]1O` [Digitoxin], the IC50 ([1]; Homo sapiens, Epithelial cell) is listed as roughly 0.0009 µM, the “incidence of adverse events vs digoxin” value ([2]; U.S. 1995-1998 retrospective, heart failure patients) is listed as “approximately three-fold lower incidence” and the side effects ([2]; control patients, ca. 30 nM in the circulation) is listed as “only modest, or in many cases, undetectable side effects”. The “GRO/KC in lung tissue” value [3, 10] was “significant reductions; also recorded: suppressed”, the “IFN-gamma in lung tissue” value [3, 10] was “significant reductions” and the “IL-1B in lung tissue” value [3, 10] was “No significant changes”. The “MCP-1 in lung tissue” value [3, 10] was “significant reductions”, the “MIP-2 in lung tissue” value [3, 10] was “significant reductions; also recorded: suppressed” and the “TGF-B in lung tissue” value [3, 10] was “No significant changes”. For the same compound, the “TNF-alpha in lung tissue” value [3, 10] was “significant reductions; also recorded: reduced”, the “lung inflammation in rodent model” value ([3]; experimental model of lung inflammation) was “profound, dose-dependent reduction” and the “CF-related constitutive phosphorylation of IKBα” value [4] was “significantly blocked”. The “CF-related constitutive phosphorylation of NFκB,p65” value [4] was “significantly blocked”, the “phosphorylation of IKKα” value [4] was “somewhat suppressed” and the bioavailable ([5]; given by mouth) was 100%. For the same compound, the “bound to blood and tissue proteins” value ([5]; human, in vivo) was 90%, the “Pulm, upper_resp adverse events (cases)” value ([6]; 0.05 mg by mouth daily) was 9 and the Dermatolog adverse events ([6]; 0.05 mg daily) was 0. It also gave a Gastrointestinal adverse events ([6]; 0.05 mg daily) of 5, a General adverse events ([6]; 0.05 mg daily) of 3 and a Musculoskel adverse events ([6]; 0.05 mg daily) of 2. For the same compound, the Neurological adverse events ([6]; 0.05 mg daily) was 8, the Reproductive adverse events ([6]; 0.05 mg daily) was 1 and the “Total (all) adverse events (cases)” value ([6]; 0.05 mg daily) was 29. For the same compound, the “Incidence Rate, all adverse events” value ([6]; 0.05 mg daily) was 0.1295, the “Incidence Rate, pulmonary adverse events” value ([6]; 0.05 mg daily) was 0.04018 and the “Inc. rate diff., all adverse events” value ([6]; 0.05 mg vs placebo) was −0.008929. The “Inc. rate diff., pulmonary adverse events” value ([6]; 0.05 mg vs placebo) was −0.008929, the “Prev. frac. pop, all adverse events” value ([6]; 0.05 mg vs placebo) was 0.03571 and the “Prev. frac. pop, pulmonary adverse events” value ([6]; 0.05 mg vs placebo) was 0.09091. The “prev. frac. ex., all adverse events” value ([6]; 0.05 mg vs placebo) was 0.06897, the “prev. frac. ex., pulmonary adverse events” value ([6]; 0.05 mg vs placebo) was 0.1818 and the “reduction in pulmonary, upper respiratory adverse events, significance” value ([6]; 0.05 mg/day vs placebo) was “not statistically significant”. The “Pulm, upper_resp adverse events (cases)” value ([6]; 0.10 mg by mouth daily) was 2, the Dermatolog adverse events ([6]; 0.10 mg daily) was 1 and the Gastrointestinal adverse events ([6]; 0.10 mg daily) was 5. The General adverse events ([6]; 0.10 mg daily) was 3, the Musculoskel adverse events ([6]; 0.10 mg daily) was 1 and the Neurological adverse events ([6]; 0.10 mg daily) was 2. For the same compound, the Reproductive adverse events ([6]; 0.10 mg daily) was 0, the “Total (all) adverse events (cases)” value ([6]; 0.10 mg daily) was 15 and the “Incidence Rate, all adverse events” value ([6]; 0.10 mg daily) was 0.06696-3 and 0.06696. For the same compound, the “Incidence Rate, pulmonary adverse events” value ([6]; 0.10 mg daily) was 0.008929, the “Inc. rate diff., all adverse events” value ([6]; 0.10 mg vs 0.05 mg) was −0.0625 and the “Inc. rate diff., pulmonary adverse events” value ([6]; 0.10 mg vs 0.05 mg) was −0.03125. For the same compound, the “Prev. frac. pop, all adverse events” value ([6]; 0.10 mg vs 0.05 mg) was 0.2414, the “Prev. frac. pop, pulmonary adverse events” value ([6]; 0.10 mg vs 0.05 mg) was 0.3889 and the “prev. frac. ex., all adverse events” value ([6]; 0.10 mg vs 0.05 mg) was 0.4828. The “prev. frac. ex., pulmonary adverse events” value ([6]; 0.10 mg vs 0.05 mg) was 0.7778, the “Inc. rate diff., all adverse events” value ([6]; 0.10 mg vs placebo) was −0.05357 and the “Inc. rate diff., pulmonary adverse events” value ([6]; 0.10 mg vs placebo) was −0.04018. For the same compound, the “Prev. frac. pop, all adverse events” value ([6]; 0.10 mg vs placebo) was 0.2222, the “Prev. frac. pop, pulmonary adverse events” value ([6]; 0.10 mg vs placebo) was 0.4091 and the “prev. frac. ex., all adverse events” value ([6]; 0.10 mg vs placebo) was 0.4444. For the same compound, the “prev. frac. ex., pulmonary adverse events” value ([6]; 0.10 mg vs placebo) was 0.8182, the “reduction in pulmonary, upper respiratory adverse events, significance” value ([6]; 0.10 mg/day (high dose) vs 0.05 mg/day (low dose)) was “statistically significant” and the “reduction in pulmonary, upper respiratory adverse events, significance” value ([6]; 0.10 mg/day vs placebo) was “statistically significant”. The serious adverse events ([6]; clinical trial in CF patients) was “no serious adverse events”, the “TNFalpha-activated NFκB activation and IL-8 expression” value [7] was “blocks” and the “interaction between TNF-alpha-activated TNFR and TRADD” value [8] was “blocks”.

`C[C@]12CC[C@H](O)C[C@H]1CC[C@@H]1[C@@H]2C[C@@H](O)[C@]2(C)[C@@H](C3=CC(=O)OC3)CC[C@]12O` [Digoxigenin] gave an IC50 ([1]; Homo sapiens, Epithelial cell) of 0.0341 µM.

In the case of `C[C@H]1O[C@@H](O[C@H]2[C@@H](O)C[C@H](O[C@H]3[C@@H](O)C[C@H](O[C@H]4CC[C@@]5(C)[C@H](CC[C@@H]6[C@@H]5C[C@@H](O)[C@]5(C)[C@@H](C7=CC(=O)OC7)CC[C@]65O)C4)O[C@@H]3C)O[C@@H]2C)C[C@H](O)[C@@H]1O` [Digoxin], the IC50 ([1]; Homo sapiens, Epithelial cell) is listed as 0.027 µM, the IC50 [1] is listed as 0.0271 µM and the “exercise capacity or exercising cardiac function” value [9] is listed as “no difference”.

With `CO[C@H]1C[C@H](O[C@H]2CC[C@@]3(C)[C@H](CC[C@@H]4[C@@H]3CC[C@]3(C)[C@@H](C5=CC(=O)OC5)[C@@H](OC(C)=O)C[C@]43O)C2)O[C@@H](C)[C@@H]1O` [Oleandrin] the IC50 ([1]; Homo sapiens, Epithelial cell) was 0.002 µM.

Work on `C[C@@H]1O[C@@H](O[C@H]2C[C@@H](O)[C@]3(CO)[C@H]4[C@H](O)C[C@]5(C)[C@@H](C6=CC(=O)OC6)CC[C@]5(O)[C@@H]4CC[C@]3(O)C2)[C@H](O)[C@H](O)[C@H]1O` [Ouabain] yielded an IC50 ([1]; Homo sapiens, Epithelial cell) of 0.0079 µM.

For Digitoxigenin 3,12-diAc, the “activity for suppression of IL-8 secretion” value [1] was “Activity is altogether lost”.
